Results taken from US20260078135A1, “POLYCYCLIC QUINAZOLINES FOR INHIBITION OF ERBB2” (Enliven Inc., priority 2022, published 2026).

Assays:
[1] = biological target: Ba/F3 ERBB2 YVMA (Homo sapiens, UniProt P04626, DUP772-775, cells depend on it); assay: Cell viability assay (CellTiter Glo), Ba/F3 cells engineered to express ERBB2 YVMA; format: cell-based, mouse; details: Ba/F3 cells expressing human ERBB2 YVMA mutant, 72 hours, read-out: Ba/F3 ERBB2 YVMA, IC50
Outline: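 Ba/F3 cells (IL-3-independent via stable retroviral human ERBB2 YVMA) seeded 3000/well and given compound from about 10 μM to 0.51 nM in three-fold steps, DMSO ≤0.1%, 72 h at 37° C. Viability by CellTiter Glo luminescence, normalized to DMSO and media-only controls. Sigmoidal nonlinear fit.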

[2] = biological target: T1, phosphorylated ERBB2 (pERBB2) (Homo sapiens, UniProt P04626); assay: Detection of phosphorylated ERBB2 (pERBB2) by ELISA in BT-474 cells; format: cell-based; details: four hour incubation
T1 construct: endogenous in cells; host or cells: BT-474
T1 sequence (P04626 23-1255): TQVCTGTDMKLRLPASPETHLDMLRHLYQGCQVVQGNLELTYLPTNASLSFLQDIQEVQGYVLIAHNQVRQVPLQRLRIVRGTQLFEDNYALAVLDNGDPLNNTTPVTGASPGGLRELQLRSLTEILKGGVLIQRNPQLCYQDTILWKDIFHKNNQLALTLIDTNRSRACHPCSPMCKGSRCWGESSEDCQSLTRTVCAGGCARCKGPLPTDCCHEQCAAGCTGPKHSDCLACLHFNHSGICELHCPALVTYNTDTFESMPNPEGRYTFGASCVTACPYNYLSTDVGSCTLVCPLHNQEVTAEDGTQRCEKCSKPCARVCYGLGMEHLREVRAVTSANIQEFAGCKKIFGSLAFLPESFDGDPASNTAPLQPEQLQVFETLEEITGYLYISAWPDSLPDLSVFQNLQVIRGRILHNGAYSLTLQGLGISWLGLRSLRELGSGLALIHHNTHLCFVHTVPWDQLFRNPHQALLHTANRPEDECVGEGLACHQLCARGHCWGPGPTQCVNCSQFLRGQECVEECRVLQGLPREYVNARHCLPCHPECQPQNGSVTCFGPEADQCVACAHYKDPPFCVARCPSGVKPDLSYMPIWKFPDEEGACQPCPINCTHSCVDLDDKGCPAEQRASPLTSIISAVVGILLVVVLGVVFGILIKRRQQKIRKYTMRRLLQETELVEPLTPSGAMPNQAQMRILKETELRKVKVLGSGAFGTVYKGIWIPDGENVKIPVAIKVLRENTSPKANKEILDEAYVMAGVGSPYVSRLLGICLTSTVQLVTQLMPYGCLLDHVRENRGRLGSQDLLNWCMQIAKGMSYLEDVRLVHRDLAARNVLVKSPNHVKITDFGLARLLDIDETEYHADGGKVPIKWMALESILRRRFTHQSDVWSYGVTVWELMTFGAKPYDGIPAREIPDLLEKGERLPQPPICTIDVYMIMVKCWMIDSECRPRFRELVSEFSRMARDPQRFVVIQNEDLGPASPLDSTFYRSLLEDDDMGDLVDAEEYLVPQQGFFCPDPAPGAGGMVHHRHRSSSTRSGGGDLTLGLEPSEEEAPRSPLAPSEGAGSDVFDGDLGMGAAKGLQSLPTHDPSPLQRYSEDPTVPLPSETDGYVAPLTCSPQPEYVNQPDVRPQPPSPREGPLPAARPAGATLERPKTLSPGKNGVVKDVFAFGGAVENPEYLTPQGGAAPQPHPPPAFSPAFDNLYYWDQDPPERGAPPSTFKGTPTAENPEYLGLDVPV
Outline: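 BT-474 cells were treated with compounds (fourfold dilutions, 10 μM to 0.01 nM final) for 4 h at 37 °C, then lysed. pERBB2 in lysates was quantified by ELISA with an HRP anti-phosphotyrosine detection antibody and TMB read at 450 nm; % relative activity was normalized to no-cell and 0.1% DMSO controls.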

[3] = biological target: T2, phosphorylated EGFR (pEGFR) (Homo sapiens, UniProt P00533); assay: Detection of phosphorylated EGFR (pEGFR) by AlphaLISA in EGF-stimulated A431 cells; format: cell-based; details: A431 cells (10% FBS), 4 hours incubation, EGF 30 ng/mL for 10 minutes
T2 construct: performed to measure phosphorylated EGFR levels using A431 cells (10% FBS); endogenous in cells; host or cells: A431
T2 sequence (P00533 25-1210): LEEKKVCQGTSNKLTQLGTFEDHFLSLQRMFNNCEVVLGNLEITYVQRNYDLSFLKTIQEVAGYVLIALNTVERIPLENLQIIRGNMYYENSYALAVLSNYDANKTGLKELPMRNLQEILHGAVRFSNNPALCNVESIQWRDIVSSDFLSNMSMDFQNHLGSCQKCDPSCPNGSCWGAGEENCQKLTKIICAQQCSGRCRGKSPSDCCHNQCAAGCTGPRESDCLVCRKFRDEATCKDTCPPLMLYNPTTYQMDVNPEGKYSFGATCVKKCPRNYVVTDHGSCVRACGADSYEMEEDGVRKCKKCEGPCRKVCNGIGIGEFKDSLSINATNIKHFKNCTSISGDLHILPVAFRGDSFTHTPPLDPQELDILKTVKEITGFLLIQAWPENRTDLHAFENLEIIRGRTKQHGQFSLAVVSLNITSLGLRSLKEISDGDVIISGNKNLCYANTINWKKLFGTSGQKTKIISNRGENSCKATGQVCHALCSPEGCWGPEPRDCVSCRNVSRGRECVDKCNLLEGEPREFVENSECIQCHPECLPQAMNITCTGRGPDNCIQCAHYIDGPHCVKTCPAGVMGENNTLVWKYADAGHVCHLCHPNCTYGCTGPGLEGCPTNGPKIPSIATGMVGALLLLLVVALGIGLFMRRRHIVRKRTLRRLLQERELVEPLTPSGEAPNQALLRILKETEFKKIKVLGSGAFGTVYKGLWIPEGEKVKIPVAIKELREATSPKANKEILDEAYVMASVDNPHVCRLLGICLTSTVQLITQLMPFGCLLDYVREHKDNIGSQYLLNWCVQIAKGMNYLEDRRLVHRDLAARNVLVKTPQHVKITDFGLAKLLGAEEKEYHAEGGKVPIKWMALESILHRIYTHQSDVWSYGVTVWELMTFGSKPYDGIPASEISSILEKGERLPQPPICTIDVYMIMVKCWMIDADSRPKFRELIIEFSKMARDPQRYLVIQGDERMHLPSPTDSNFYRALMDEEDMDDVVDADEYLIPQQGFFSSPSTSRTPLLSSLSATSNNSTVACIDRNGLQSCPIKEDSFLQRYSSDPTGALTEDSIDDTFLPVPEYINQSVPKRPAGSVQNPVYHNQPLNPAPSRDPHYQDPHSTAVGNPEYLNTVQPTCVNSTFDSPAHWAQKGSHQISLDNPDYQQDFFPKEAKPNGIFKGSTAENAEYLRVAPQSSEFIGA
Outline: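 A431 cells in 10% FBS were preincubated with compound for 4 h at 37 °C, then stimulated with 30 ng/mL EGF for 10 min and lysed. pEGFR read by AlphaLISA. % inhibition normalised to DMSO and staurosporine controls; IC50 from four-parameter curve fit.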

Ba/F3 ERBB2 YVMA, sequence (P04626 with tags, fused parts or gaps DUP772-775): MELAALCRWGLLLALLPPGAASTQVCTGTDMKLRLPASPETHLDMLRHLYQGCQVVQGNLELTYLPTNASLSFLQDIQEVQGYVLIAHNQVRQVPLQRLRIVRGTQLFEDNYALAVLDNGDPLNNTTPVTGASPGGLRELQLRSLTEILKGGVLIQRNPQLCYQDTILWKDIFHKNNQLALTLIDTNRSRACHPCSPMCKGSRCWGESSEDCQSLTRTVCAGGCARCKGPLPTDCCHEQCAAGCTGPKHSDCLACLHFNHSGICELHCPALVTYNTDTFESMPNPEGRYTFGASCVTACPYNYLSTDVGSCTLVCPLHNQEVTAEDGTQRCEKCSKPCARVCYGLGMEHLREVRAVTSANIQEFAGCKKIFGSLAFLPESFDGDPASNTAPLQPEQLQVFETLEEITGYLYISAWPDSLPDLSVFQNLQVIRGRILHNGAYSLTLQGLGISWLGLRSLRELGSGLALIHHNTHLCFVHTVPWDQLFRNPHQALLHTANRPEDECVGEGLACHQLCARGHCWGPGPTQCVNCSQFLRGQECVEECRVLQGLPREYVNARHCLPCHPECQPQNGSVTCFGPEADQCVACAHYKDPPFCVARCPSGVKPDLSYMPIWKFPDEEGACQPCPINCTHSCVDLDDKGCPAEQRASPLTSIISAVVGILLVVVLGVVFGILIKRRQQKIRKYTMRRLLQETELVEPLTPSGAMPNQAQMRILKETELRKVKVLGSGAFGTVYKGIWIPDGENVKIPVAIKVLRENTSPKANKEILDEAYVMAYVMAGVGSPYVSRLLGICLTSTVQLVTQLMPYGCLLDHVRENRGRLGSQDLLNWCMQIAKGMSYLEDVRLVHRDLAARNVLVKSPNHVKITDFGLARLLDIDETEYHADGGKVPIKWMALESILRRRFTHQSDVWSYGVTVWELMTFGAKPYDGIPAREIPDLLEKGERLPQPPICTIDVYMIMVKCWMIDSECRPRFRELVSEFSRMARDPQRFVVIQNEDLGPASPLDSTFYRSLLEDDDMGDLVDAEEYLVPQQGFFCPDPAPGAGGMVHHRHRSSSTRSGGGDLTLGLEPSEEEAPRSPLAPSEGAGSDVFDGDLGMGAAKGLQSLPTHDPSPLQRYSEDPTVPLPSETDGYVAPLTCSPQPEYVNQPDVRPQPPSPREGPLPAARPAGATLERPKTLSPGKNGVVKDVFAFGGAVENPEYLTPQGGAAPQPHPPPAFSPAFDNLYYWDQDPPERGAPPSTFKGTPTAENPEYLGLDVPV

SMILES	IC50 [2] [nM]	IC50 [3] [nM]	GI50 [1] [nM]
Cc1cc(Nc2ncnc3ccc4c(c23)OC[C@@H]2CN4CCN2C(=O)/C=C/CN(C)C)ccc1Oc1ccn2ncnc2c1 [Compound 26, (E)-1-((3S)-13-((4-([1,2,4]triazolo[1,5-a]pyridin-7-yloxy)-3-methylphenyl)amino)-2,3,5,6-tetrahydro-4H-3,7-methano[1,4,7]oxadiazonino[2,3-f]quinazolin-4-yl)-4-(dimethylamino)but-2-en-1-one]	434	> 10000	> 500
C=CC(=O)N1CCN2c3cc4c(Nc5ccc(Oc6ccn7ncnc7c6)c(C)c5)ncnc4cc3OC[C@H]2C1 [Compound 4, (R)-1-(11-((4-([1,2,4]triazolo[1,5-a]pyridin-7-yloxy)-3-methylphenyl)amino)-1,2,4a,5-tetrahydropyrazino[1′,2′:4,5][1,4]oxazino[3,2-g]quinazolin-3(4H)-yl)prop-2-en-1-one]	14.1	1330	62.4
CC#CC(=O)N1CCN2c3cc4c(Nc5ccc(Oc6ccc7c(c6)ncn7C)c(C)c5)ncnc4cc3OC[C@@H]2C1 [Compound 14, (S)-1-(11-((3-methyl-4-((1-methyl-1H-benzo[d]imidazol-5-yl)oxy)phenyl)amino)-1,2,4a,5-tetrahydropyrazino[1′,2′:4,5][1,4]oxazino[3,2-g]quinazolin-3(4H)-yl)but-2-yn-1-one]	82.8	545	14.4
Cc1cc(Nc2ncnc3cc4c(cc23)N2CCN(C(=O)/C=C/CN(C)C)C[C@H]2CO4)ccc1Oc1ccn2ncnc2c1 [Compound 9, (S,E)-1-(11-((4-([1,2,4]triazolo[1,5-a]pyridin-7-yloxy)-3-methylphenyl)amino)-1,2,4a,5-tetrahydropyrazino[1′,2′:4,5][1,4]oxazino[3,2-g]quinazolin-3(4H)-yl)-4-(dimethylamino)but-2-en-1-one]	36.1	1680	41.2
CN(C)C/C=C/C(=O)N1CCN2c3ccc4ncnc(Nc5ccc(Oc6ccn7ncnc7c6)cc5F)c4c3OC[C@@H]2C1 [Compound 95, (S,E)-1-(4-((4-([1,2,4]triazolo[1,5-a]pyridin-7-yloxy)-2-fluorophenyl)amino)-6a,7,9,10-tetrahydropyrazino[1′,2′:4,5][1,4]oxazino[2,3-f]quinazolin-8(6H)-yl)-4-(dimethylamino)but-2-en-1-one]	32.3	2780	19.6
Cc1cc(Nc2ncnc3cc4c(nc23)N2CCN(C(=O)/C=C/CN(C)C)C[C@H]2CO4)ccc1Oc1ccn2ncnc2c1 [Compound 16, (S,E)-1-(11-((4-([1,2,4]triazolo[1,5-a]pyridin-7-yloxy)-3-methylphenyl)amino)-1,2,4a,5-tetrahydropyrazino[1,2-d]pyrimido[4′,5′:5,6]pyrido[3,2-b][1,4]oxazin-3(4H)-yl)-4-(dimethylamino)but-2-en-1-one]	5.8	130	1.47
Cc1ccc(Oc2ccc(Nc3ncnc4ccc5c(c34)OC[C@H]3CN5CCN3C(=O)/C=C/CN(C)C)cc2C)cn1 [Compound 84, (E)-4-(dimethylamino)-1-((3R)-13-((3-methyl-4-((6-methylpyridin-3-yl)oxy)phenyl)amino)-2,3,5,6-tetrahydro-4H-3,7-methano[1,4,7]oxadiazonino[2,3-f]quinazolin-4-yl)but-2-en-1-one]	14.6	60.1	2.95
Cc1cc(Nc2ncnc3cnc4c(c23)OC[C@H]2CN4CCN2C(=O)/C=C/CN(C)C)ccc1Oc1ccn2ncnc2c1 [Compound 82, (E)-1-((3R)-13-((4-([1,2,4]triazolo[1,5-a]pyridin-7-yloxy)-3-methylphenyl)amino)-2,3,5,6-tetrahydro-4H-3,7-methanopyrimido[5′,4′:4,5]pyrido[3,2-b][1,4,7]oxadiazonin-4-yl)-4-(dimethylamino)but-2-en-1-one]	7.9	199	6.9

Second part, led by results:

IC50 [2] [nM]	IC50 [3] [nM]	SMILES	GI50 [1] [nM]
52.4	> 10000	Cc1cc(Nc2ncnc3cc4c(nc23)N2CCN(C)C[C@H]2CO4)ccc1Oc1ccn2ncnc2c1 [Compound 33, (S)—N-(4-([1,2,4]triazolo[1,5-a]pyridin-7-yloxy)-3-methylphenyl)-3-methyl-1,2,3,4,4a,5-hexahydropyrazino[1,2-d]pyrimido[4′,5′:5,6]pyrido[3,2-b][1,4]oxazin-11-amine]	271
17.2	> 10000	Cc1cc(Nc2ncnc3ccc4c(c23)OC[C@H]2COCCN42)ccc1Oc1ccn2ncnc2c1 [Compound 85, (R)—N-(4-([1,2,4]triazolo[1,5-a]pyridin-7-yloxy)-3-methylphenyl)-6a,7,9,10-tetrahydro-6H-[1,4]oxazino[4′,3′:4,5][1,4]oxazino[2,3-f]quinazolin-4-amine]	181
21.8	1170	Cc1cc(Nc2ncnc3cnc4c(c23)OC[C@@H]2CN(C(=O)/C=C/CN(C)C)CCN42)ccc1Oc1ccn2ncnc2c1 [Compound 112, (S,E)-1-(4-((4-([1,2,4]triazolo[1,5-a]pyridin-7-yloxy)-3-methylphenyl)amino)-6a,7,9,10-tetrahydropyrazino[1,2-d]pyrimido[5′,4′:4,5]pyrido[3,2-b][1,4]oxazin-8(6H)-yl)-4-(dimethylamino)but-2-en-1-one]	13.3
43.1	> 10000	Cc1cc(Nc2ncnc3ccc4c(c23)OC[C@@H]2CN(C(=O)/C=C/C3CN(C)C3)CCN42)ccc1Oc1ccn2ncnc2c1 [Compound 114, (S,E)-1-(4-((4-([1,2,4]triazolo[1,5-a]pyridin-7-yloxy)-3-methylphenyl)amino)-6a,7,9,10-tetrahydropyrazino[1′,2′:4,5][1,4]oxazino[2,3-f]quinazolin-8(6H)-yl)-3-(1-methylazetidin-3-yl)prop-2-en-1-one formic acid]	172
53.6	> 10000	Cc1cc(Nc2ncnc3cc4c(nc23)N2CCNC[C@H]2CO4)ccc1Oc1ccn2ncnc2c1 [Compound 34, (S)—N-(4-([1,2,4]triazolo[1,5-a]pyridin-7-yloxy)-3-methylphenyl)-1,2,3,4,4a,5-hexahydropyrazino[1,2-d]pyrimido[4′,5′:5,6]pyrido[3,2-b][1,4]oxazin-11-amine]	474
8.75	189	Cc1cc(Nc2ncnc3ccc4c(c23)OC[C@H]2CN4CCN2C(=O)/C=C/CN(C)C)ccc1Oc1ccn2ncnc2c1 [Compound 27, (E)-1-((3R)-13-((4-([1,2,4]triazolo[1,5-a]pyridin-7-yloxy)-3-methylphenyl)amino)-2,3,5,6-tetrahydro-4H-3,7-methano[1,4,7]oxadiazonino[2,3-f]quinazolin-4-yl)-4-(dimethylamino)but-2-en-1-one]	7.69
51.4	4770	CC#CC(=O)N1CCN2c3nc4c(Nc5ccc(Oc6ccn7ncnc7c6)c(C)c5)ncnc4cc3OC[C@@H]2C1 [Compound 32, (S)-1-(11-((4-([1,2,4]triazolo[1,5-a]pyridin-7-yloxy)-3-methylphenyl)amino)-1,2,4a,5-tetrahydropyrazino[1,2-d]pyrimido[4′,5′:5,6]pyrido[3,2-b][1,4]oxazin-3(4H)-yl)but-2-yn-1-one]	18.3
44.3	2820	Cc1cc(Nc2ncnc3ccc4c(c23)OC[C@H]2CN4CCN2C(=O)/C=C/[C@@H](C)N(C)C)ccc1Oc1ccn2ncnc2c1 [Compound 88, (4R,E)-1-((3R)-13-((4-([1,2,4]triazolo[1,5-a]pyridin-7-yloxy)-3-methylphenyl)amino)-2,3,5,6-tetrahydro-4H-3,7-methano[1,4,7]oxadiazonino[2,3-f]quinazolin-4-yl)-4-(dimethylamino)pent-2-en-1-one formic acid]	60.3
20.8	2160	Cc1cc(Nc2ncnc3ccc4c(c23)OC[C@@H]2CN(C(=O)/C=C/CN(C)C)CCN42)c(F)cc1Oc1ccn2ncnc2c1 [Compound 92, (S,E)-1-(4-((4-([1,2,4]triazolo[1,5-a]pyridin-7-yloxy)-2-fluoro-5-methylphenyl)amino)-6a,7,9,10-tetrahydropyrazino[1′,2′:4,5][1,4]oxazino[2,3-f]quinazolin-8(6H)-yl)-4-(dimethylamino)but-2-en-1-one]	18
172	> 10000	Cc1cc(Nc2ncnc3ccc4c(c23)OC[C@H]2CN4CCN2C(=O)/C=C/[C@H](C)N(C)C)ccc1Oc1ccn2ncnc2c1 [Compound 89, (4S,E)-1-((3R)-13-((4-([1,2,4]triazolo[1,5-a]pyridin-7-yloxy)-3-methylphenyl)amino)-2,3,5,6-tetrahydro-4H-3,7-methano[1,4,7]oxadiazonino[2,3-f]quinazolin-4-yl)-4-(dimethylamino)pent-2-en-1-one]	264
